In patent US20230165831A1, “METHOD AND COMPOSITION FOR RENDERING CANCER CELLS SUSCEPTIBLE TO TREATMENT BY TARGETED ONCOGENETIC DRIVERS” (IMPACT BIOLIFE SCIENCE, INC., priority 2021, published 2023):

What was measured:
[1] = system: pancreatic cancer line Capan-1 cells; experiment: CTG (CellTiter-Glo) cell viability assay, 6×6 combo matrix, 72 h, Capan-1; format: cell-based; details: for Relatively Cell inhibition of vehicle control(%): Capan-1
Description: To measure the cell inhibition effect of compounds and synergy effect of test articles on ten (10) cell lines using standard CTG assay.
b. A549, T47D, SK-OV-3, MKN45, SK-Hep-1, HT-29, Capan-1, 786-O and LNCaP cell line, for compounds and vehicle groups, the seeding density of cell lines is 3000 cells/80 µL per well. For blank groups, add 100 µL medium. For PBS groups, add 100 µL PBS.
8) Incubate the U87MG, A549, T47D, SK-OV-3, MKN45, SK-Hep-1, HT-29, Capan-1, 786-O and LNCaP cells overnight at 37° C./5% CO2.
5) Incubate the plates at 37° C./5% CO2 for 72 hours.
6) Read plates in Envision.

[2] = system: breast cancer line T47D cells; experiment: CTG (CellTiter-Glo) cell viability assay, 6×6 combo matrix, 72 h, T47D;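 further: luminescence read-out after 72 h at 37 °C under 5% CO2, with medium-only wells as blanks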
Description: (§1) 7) Using complete cell medium, adjust the volume of the suspension to achieve a cell concentration.
(§2) Solid compound of cis-platinum was solubilized in PBS to a stock solution of 3.333 mM.
(§3) Final volume is 100 µL per well at this point.
(§4) 1) Incubate the plates at room temperature and away from light for 30 minutes.
(§5) 3) Add 100 µL /well of CellTiter-Glo® Reagent in each well. Avoid light.
(§6) 4) Mix contents for 2 minutes on an orbital shaker.
(§7) 5) Incubate plate at room temperature for 10 minutes to stabilize the luminescent signal.

[3] = system: colorectal cancer line HT29 cells; experiment: CTG (CellTiter-Glo) cell viability assay, 6×6 combo matrix, 72 h, HT29; details: HT29;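 further: cells exposed to compounds for 72 hours at 37 °C under 5% CO2, then viability read as luminescence after adding CellTiter-Glo Reagent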
[4] = system: lung adenocarcinoma line A549 cells; experiment: CTG (CellTiter-Glo) cell viability assay, 6×6 combo matrix, 72 h, A549; details: A549;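 further: luminescent ATP readout with CellTiter-Glo after compound exposure, used to assess growth inhibition and combination synergy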
Description: as §1, §2, §3, §4, §5, §6, §7

[5] = system: glioblastoma line U87MG cells; experiment: CTG (CellTiter-Glo) cell viability assay, 6×6 combo matrix, 72 h, U87MG;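 further: U87MG cells seeded at 2000 per well, exposed 72 h, viability read by CellTiter-Glo luminescence, inhibition expressed relative to vehicle-treated wells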
Description: as §1
U87MG cell lines, for compounds and vehicle groups, the seeding density of cell lines is 2000 cells/80 µL per well. For blank groups, add 100 µL medium. For PBS groups, add 100 µL PBS.
as §2, §3, §4, §5, §6, §7

[6] = system: prostate adenocarcinoma line LNCap cells; experiment: CTG (CellTiter-Glo) cell viability assay, 6×6 combo matrix, 72 h, LNCaP;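 further: luminescence signal read after adding CellTiter-Glo reagent, with cells exposed to compounds for 72 h at 37 °C under 5% CO2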
[7] = system: gastric cancer line MKN45 cells; experiment: CTG (CellTiter-Glo) cell viability assay, 6×6 combo matrix, 72 h, MKN45;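 further: MKN45 cell viability read as CellTiter-Glo luminescence after 72 h culture at 37 °C under 5% CO2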
Description: as §1, §2, §3, §4, §5, §6, §7

[8] = system: kidney cancer line 786-O cells; experiment: CTG (CellTiter-Glo) cell viability assay, 6×6 combo matrix, 72 h, 786-O; details: for Relatively Cell inhibition of vehicle control(%): 786-O;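 on all read-outs here: luminescence read-out after adding CellTiter-Glo reagent, with cells incubated at 37 °C under 5% CO2 during compound exposure, part of a ten cell line synergy study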
Description: as §1, §2, §3, §4, §5, §6, §7

[9] = system: ovarian cancer line SK-OV3 cells; experiment: CTG (CellTiter-Glo) cell viability assay, 6×6 combo matrix, 72 h, SK-OV-3; details: SK-OV-3;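 further: luminescent signal read after CellTiter-Glo addition, cells exposed to compounds for 72 h at 37 °C under 5% CO2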
Description: as §1, §2, §3, §4, §5, §6, §7

[10] = system: Liver cancer line SK-HEP-1 cells; experiment: CTG (CellTiter-Glo) cell viability assay, 6×6 combo matrix, 72 h, SK-Hep-1;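 further: luminescent signal read after 72 h compound exposure at 37 °C under 5% CO2, with medium-only wells serving as blank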
Description: as §1, §2, §3, §4, §5, §6, §7

[11] = cisplatin 0.048 µM only (myricetin plate)
[12] = cisplatin 1.2 µM only (myricetin plate)
[13] = cisplatin 6 µM only (myricetin plate)
[14] = cisplatin 30 µM only (myricetin plate)

N.N.[Cl][Pt][Cl] [cisplatin]
Relatively Cell inhibition of vehicle control(%) ([1]; Cis 0.048 µM only): -11.79%
Relatively Cell inhibition of vehicle control(%) ([1]; Cis 1.2 µM only): 19.41%
Relatively Cell inhibition of vehicle control(%) ([1]; Cis 6 µM only): 49.43%
Relatively Cell inhibition of vehicle control(%) ([1]; Cis 30 µM only): 79.85%
Relatively Cell inhibition of vehicle control ([1]; cisplatin 0.048 µM only): -4.42%
Relatively Cell inhibition of vehicle control ([1]; cisplatin 1.2 µM only): 16.43%
Relatively Cell inhibition of vehicle control ([1]; cisplatin 6 µM only): 42.34%
Relatively Cell inhibition of vehicle control ([1]; cisplatin 30 µM only): 66.79%
Relatively Cell inhibition of vehicle control(%) ([2]; 0.048 µM cisplatin only (LB-1 0)): 1.63%
Relatively Cell inhibition of vehicle control(%) ([2]; 0.048 µM cisplatin only (myricetin 0)): 0.23%
Relatively Cell inhibition of vehicle control(%) ([2]; 1.2 µM cisplatin only (LB-1 0)): -1.67%
Relatively Cell inhibition of vehicle control(%) ([2]; 1.2 µM cisplatin only (myricetin 0)): 0.07%
Relatively Cell inhibition of vehicle control(%) ([2]; 6 µM cisplatin only (LB-1 0)): -0.49%
Relatively Cell inhibition of vehicle control(%) ([2]; 6 µM cisplatin only (myricetin 0)): 11.28%
Relatively Cell inhibition of vehicle control(%) ([2]; 30 µM cisplatin only (LB-1 0)): 22.74%
Relatively Cell inhibition of vehicle control(%) ([2]; 30 µM cisplatin only (myricetin 0)): 36.54%
Relatively Cell inhibition of vehicle control(%) ([3]; Cis 0.048 µM only (LB-1 0)): 2.74%
Relatively Cell inhibition of vehicle control(%) ([3]; Cis 0.048 µM only (Myr 0)): -4.21%
Relatively Cell inhibition of vehicle control(%) ([3]; Cis 1.2 µM only (LB-1 0)): 6.85%
Relatively Cell inhibition of vehicle control(%) ([3]; Cis 1.2 µM only (Myr 0)): 6.63%
Relatively Cell inhibition of vehicle control(%) ([3]; Cis 6 µM only (LB-1 0)): 19.05%
Relatively Cell inhibition of vehicle control(%) ([3]; Cis 6 µM only (Myr 0)): 20.8%
Relatively Cell inhibition of vehicle control(%) ([3]; Cis 30 µM only (LB-1 0)): 52.83%
Relatively Cell inhibition of vehicle control(%) ([3]; Cis 30 µM only (Myr 0)): 66.86%
inhibition rate ([4]; 30 µM cisplatin only (LB-1 0), 72 h): 65.03%
Relatively Cell inhibition of vehicle control(%) ([4]; cisplatin 0.048 µM only (myricetin 0)): 1.46%
Relatively Cell inhibition of vehicle control(%) ([4]; cisplatin 1.2 µM only (myricetin 0)): 0.61%
Relatively Cell inhibition of vehicle control(%) ([4]; cisplatin 6 µM only (myricetin 0)): 33.19%
Relatively Cell inhibition of vehicle control(%) ([4]; cisplatin 30 µM only (myricetin 0)): 77.27%
Relatively Cell inhibition of vehicle control(%) ([4]; Cis 0.048 µM only): 0.17%
Relatively Cell inhibition of vehicle control(%) ([4]; Cis 1.2 µM only): 1.57%
Relatively Cell inhibition of vehicle control(%) ([4]; Cis 6 µM only): 33.27%
Relatively Cell inhibition of vehicle control(%) ([4]; Cis 30 µM only): 65.03%
Relatively Cell inhibition of vehicle control(%) ([5]; cisplatin 0.048 µM only): 1.97%
Relatively Cell inhibition of vehicle control(%) [5, 11]: 0.89%
Relatively Cell inhibition of vehicle control(%) ([5]; cisplatin 1.2 µM only): 11.78%
Relatively Cell inhibition of vehicle control(%) [5, 12]: 15.05%
Relatively Cell inhibition of vehicle control(%) ([5]; cisplatin 6 µM only): 46.78%
Relatively Cell inhibition of vehicle control(%) [5, 13]: 58.90%
Relatively Cell inhibition of vehicle control(%) ([5]; cisplatin 30 µM only): 83.20%
Relatively Cell inhibition of vehicle control(%) [5, 14]: 86.28%
Relatively Cell inhibition of vehicle control(%) ([6]; cisplatin 0.048 µM only (LB-1 plate)): -11.07%
Relatively Cell inhibition of vehicle control(%) [6, 11]: -7.42%
Relatively Cell inhibition of vehicle control(%) ([6]; cisplatin 1.2 µM only (LB-1 plate)): -13.28%
Relatively Cell inhibition of vehicle control(%) [6, 12]: -9.21%
Relatively Cell inhibition of vehicle control(%) ([6]; cisplatin 6 µM only (LB-1 plate)): 12.99%
Relatively Cell inhibition of vehicle control(%) [6, 13]: 19.01%
Relatively Cell inhibition of vehicle control(%) ([6]; cisplatin 30 µM only (LB-1 plate)): 53.09%
Relatively Cell inhibition of vehicle control(%) [6, 14]: 61.54%
Relatively Cell inhibition of vehicle control(%) ([7]; Cis 0.048 µM only (LB-1 0)): 7.78%
Relatively Cell inhibition of vehicle control(%) ([7]; Cis 0.048 µM only (Myr 0)): 5.10%
Relatively Cell inhibition of vehicle control(%) ([7]; Cis 1.2 µM only (LB-1 0)): 5.53%
Relatively Cell inhibition of vehicle control(%) ([7]; Cis 1.2 µM only (Myr 0)): 22.76%
Relatively Cell inhibition of vehicle control(%) ([7]; Cis 6 µM only (LB-1 0)): 33.22%
Relatively Cell inhibition of vehicle control(%) ([7]; Cis 6 µM only (Myr 0)): 48.92%
Relatively Cell inhibition of vehicle control(%) ([7]; Cis 30 µM only (LB-1 0)): 81.54%
Relatively Cell inhibition of vehicle control(%) ([7]; Cis 30 µM only (Myr 0)): 90.46%
Relatively Cell inhibition of vehicle control(%) ([8]; Cis 0.048 µM only (LB-1 0)): 0.45%
Relatively Cell inhibition of vehicle control(%) ([8]; Cis 1.2 µM only (LB-1 0)): 5.31%
Relatively Cell inhibition of vehicle control(%) ([8]; Cis 6 µM only (LB-1 0)): 60.32%
Relatively Cell inhibition of vehicle control(%) ([8]; Cis 30 µM only (LB-1 0)): 90.04%
Relatively Cell inhibition of vehicle control ([8]; cisplatin 0.048 µM only): -1.09%
Relatively Cell inhibition of vehicle control ([8]; cisplatin 1.2 µM only): 10.33%
Relatively Cell inhibition of vehicle control ([8]; cisplatin 6 µM only): 67.62%
Relatively Cell inhibition of vehicle control ([8]; cisplatin 30 µM only): 86.78%
Relatively Cell inhibition of vehicle control(%) ([9]; Cis 0.048 µM only (LB-1 matrix)): -0.61%
Relatively Cell inhibition of vehicle control(%) ([9]; Cis 0.048 µM only (myricetin matrix)): 0.65%
Relatively Cell inhibition of vehicle control(%) ([9]; Cis 1.2 µM only (LB-1 matrix)): 7.66%
Relatively Cell inhibition of vehicle control(%) ([9]; Cis 1.2 µM only (myricetin matrix)): 17.32%
Relatively Cell inhibition of vehicle control(%) ([9]; Cis 6 µM only (LB-1 matrix)): 50.05%
Relatively Cell inhibition of vehicle control(%) ([9]; Cis 6 µM only (myricetin matrix)): 55.97%
Relatively Cell inhibition of vehicle control(%) ([9]; Cis 30 µM only (LB-1 matrix)): 88.98%
Relatively Cell inhibition of vehicle control(%) ([9]; Cis 30 µM only (myricetin matrix)): 85.03%
Relatively Cell inhibition of vehicle control ([10]; cisplatin 0.048 µM only (LB-1 table)): -8.71%
Relatively Cell inhibition of vehicle control ([10]; cisplatin 0.048 µM only (myricetin table)): -7.69%
Relatively Cell inhibition of vehicle control ([10]; cisplatin 1.2 µM only (LB-1 table)): -10.98%
Relatively Cell inhibition of vehicle control ([10]; cisplatin 1.2 µM only (myricetin table)): -2.56%
Relatively Cell inhibition of vehicle control ([10]; cisplatin 6 µM only (LB-1 table)): 29.88%
Relatively Cell inhibition of vehicle control ([10]; cisplatin 6 µM only (myricetin table)): 29.55%
Relatively Cell inhibition of vehicle control ([10]; cisplatin 30 µM only (LB-1 table)): 70.68%
Relatively Cell inhibition of vehicle control ([10]; cisplatin 30 µM only (myricetin table)): 76.71%
